The source made the active and inactive calls. The rule behind the calls is not given here.
How the values were obtained:
HepG2 = experiment: Cytotoxicity against human HepG2 cells assessed as growth inhibition after 48 hrs by SRB assay; format: functional, cell-based; settings: HepG2, 48 h
DU-145 = experiment: Cytotoxicity against human DU145 cells assessed as growth inhibition after 48 hrs by SRB assay; format: functional, cell-based; settings: DU-145, 48 h
A549 = experiment: Cytotoxicity against human A549 cells assessed as growth inhibition after 48 hrs by SRB assay; format: functional, cell-based; settings: A549, 48 h
MDA-MB-231 = experiment: Cytotoxicity against human MDA-MB-231 cells assessed as growth inhibition after 48 hrs by SRB assay; format: functional, cell-based; settings: MDA-MB-231, 48 h
SK-N-SH = experiment: Cytotoxicity against human SK-N-SH cells assessed as growth inhibition after 48 hrs by SRB assay; format: functional, cell-based
Calf thymus DNA [1] = experiment: Binding affinity to calf thymus DNA by fluorescence spectroscopic analysis; format: nucleic-acid assay; settings: Bos taurus
Calf thymus DNA [2] = experiment: Binding affinity to calf thymus DNA assessed as compound-DNA complex formation by UV-Vis absorption spectroscopic analysis; format: nucleic-acid assay; settings: Bos taurus

Compound: CCOC(=O)/C(=C/c1ccccc1Br)Cn1cnnn1
- IC50 (HepG2): 3.33 µM
- IC50 (DU-145): 7.79 µM
- IC50 (A549): 5.94 µM
- IC50 (MDA-MB-231): 14.8 µM
- IC50 (SK-N-SH): 16.3 µM

Compound: COC(=O)/C(=C/c1ccc(C)cc1)Cn1cnnn1
- IC50 (HepG2): 10.7 µM
- IC50 (DU-145): 8.42 µM
- IC50 (A549): 16 µM
- IC50 (MDA-MB-231): 62.6 µM
- IC50 (SK-N-SH): 71.7 µM

Compound: COC(=O)/C(=C/c1ccc([N+](=O)[O-])cc1)Cn1cnnn1
- IC50 (HepG2): 2.07 µM
- IC50 (DU-145): 5.5 µM
- IC50 (A549): 2.84 µM
- IC50 (MDA-MB-231): 9.14 µM
- IC50 (SK-N-SH): 22.3 µM

Compound: N#C/C(=C\c1cccc2ccccc12)Cn1cnnn1
- IC50 (HepG2): 7.11 µM
- IC50 (DU-145): 7.36 µM
- IC50 (A549): 5.7 µM
- IC50 (MDA-MB-231): 31.4 µM
- IC50 (SK-N-SH): 16.9 µM

Compound: Cc1ccc(/C=C(\C#N)Cn2cnnn2)cc1
- IC50 (HepG2): 6.56 µM
- IC50 (DU-145): 7.3 µM
- IC50 (A549): 7.95 µM
- IC50 (MDA-MB-231): 25.7 µM
- IC50 (SK-N-SH): 20.1 µM

Compound: Cc1nnnn1C/C(C#N)=C/c1cccc2ccccc12
- IC50 (HepG2): 2.6 µM
- IC50 (DU-145): 5.76 µM
- IC50 (A549): 2.95 µM
- IC50 (MDA-MB-231): 14.1 µM
- IC50 (SK-N-SH): 13.7 µM
- Activity (Calf thymus DNA [1]): Active
- Kb (Calf thymus DNA [2]): 0.75 ×10⁵ /M

Compound: CCOC(=O)/C(=C/c1ccc(Cl)cc1)Cn1cnnn1
- IC50 (HepG2): 3 µM
- IC50 (DU-145): 8.44 µM
- IC50 (A549): 3.18 µM
- IC50 (MDA-MB-231): 23.9 µM
- IC50 (SK-N-SH): 28.2 µM

Compound: Cc1nnnn1C/C(C#N)=C/c1ccc(F)cc1
- IC50 (HepG2): 7.29 µM
- IC50 (DU-145): 7.19 µM
- IC50 (A549): 6.4 µM
- IC50 (MDA-MB-231): 28.8 µM
- IC50 (SK-N-SH): 20.2 µM

Compound: COC(=O)/C(=C/c1ccccc1[N+](=O)[O-])Cn1cnnn1
- IC50 (HepG2): 4.33 µM
- IC50 (DU-145): 10.2 µM
- IC50 (A549): 6.88 µM
- IC50 (MDA-MB-231): 43.7 µM
- IC50 (SK-N-SH): 19.8 µM

Compound: N#C/C(=C\c1ccc(C(F)(F)F)cc1)Cn1cnnn1
- IC50 (HepG2): 1.65 µM
- IC50 (DU-145): 5.92 µM
- IC50 (A549): 3.51 µM
- IC50 (MDA-MB-231): 8.7 µM
- IC50 (SK-N-SH): 11.8 µM

Compound: COC(=O)/C(=C/c1ccc(F)cc1)Cn1cnnn1
- IC50 (HepG2): 12.1 µM
- IC50 (DU-145): 8.57 µM
- IC50 (A549): 6.9 µM
- IC50 (MDA-MB-231): 15.9 µM
- IC50 (SK-N-SH): 18.3 µM

Compound: COC(=O)/C(=C/c1ccccc1)Cn1cnnn1
- IC50 (HepG2): 10.7 µM
- IC50 (DU-145): 9.02 µM
- IC50 (A549): 7.91 µM
- IC50 (MDA-MB-231): 16.4 µM
- IC50 (SK-N-SH): 31.6 µM

Compound: COC(=O)Nc1nc2cc(C(=O)c3cccs3)ccc2[nH]1 [NOCODAZOLE]
- IC50 (HepG2): < 0.1 µM
- IC50 (DU-145): < 0.1 µM
- IC50 (A549): < 0.1 µM
- IC50 (MDA-MB-231): < 0.1 µM
- IC50 (SK-N-SH): < 0.1 µM

Compound: CCOC(=O)/C(=C/c1ccc(Br)cc1)Cn1cnnn1
- IC50 (HepG2): 4.89 µM
- IC50 (DU-145): 5.5 µM
- IC50 (A549): 4.78 µM
- IC50 (MDA-MB-231): 18.9 µM
- IC50 (SK-N-SH): 27.3 µM

Compound: COc1cc([C@@H]2c3cc4c(cc3[C@H](O)[C@H]3COC(=O)[C@H]23)OCO4)cc(OC)c1OC [PODOFILOX]
- IC50 (HepG2): < 0.1 µM
- IC50 (DU-145): < 0.1 µM
- IC50 (A549): < 0.1 µM
- IC50 (MDA-MB-231): < 0.1 µM
- IC50 (SK-N-SH): < 0.1 µM

Compound: COC(=O)/C(=C/c1ccc(OC)cc1)Cn1cnnn1
- IC50 (HepG2): 6.65 µM
- IC50 (DU-145): 5.6 µM
- IC50 (A549): 3.83 µM
- IC50 (MDA-MB-231): 21 µM
- IC50 (SK-N-SH): 7.9 µM

Compound: N#C/C(=C\c1ccccc1)Cn1cnnn1
- IC50 (HepG2): 5.83 µM
- IC50 (DU-145): 9.45 µM
- IC50 (A549): 9.99 µM
- IC50 (MDA-MB-231): 18.4 µM
- IC50 (SK-N-SH): 23.3 µM

Compound: COc1ccc(/C=C(\C#N)Cn2cnnn2)cc1
- IC50 (HepG2): 27.4 µM
- IC50 (DU-145): 19.4 µM
- IC50 (A549): 23.8 µM
- IC50 (MDA-MB-231): 20.3 µM
- IC50 (SK-N-SH): 64.2 µM

Source: ChEMBL document CHEMBL3217501, “Synthesis and biological evaluation of tetrazole containing compounds as possible anticancer agents” (Medchemcomm, 2011)
